What was measured:
Her2 = test: Degradation of Her2 in BT-474 cells after treatment with compound (Western blot, Method 1); assay type: cell-based, human; conditions: for IC50: treated overnight in DMEM
Description: Human high-Her2 breast carcinoma BT474 (HTB-20), SK-BR-3 (HTB-30) and MCF-7 breast carcinoma (HTB-22) from American Type Culture Collection, VA, USA were grown in Dulbecco's modified Eagle's medium with 4 mM L-glutamine and antibiotics (100 IU/ml penicillin and 100 ug/ml streptomycine; GibcoBRL). To obtain exponential cell growth, cells were trypsinized, counted and seeded at a cell density of 0.5×10^6 cells/ml regularly, every 3 days. All experiments were performed on day 1 after cell passage.
BT-474 cells were treated with 0.5 μM, 2 μM, or 5 μM of 17AAG (a positive control) or 0.5 μM, 2 μM, or 5 μM of a compound of the invention overnight in DMEM medium. After treatment, each cytoplasmic sample was prepared from 1×10^6 cells by incubation of cell lysis buffer (#9803, cell Signaling Technology) on ice for 10 minutes. The resulting supernatant used as the cytosol fractions are dissolved with sample buffer for SDS-PAGE and run on a SDS-PAGE gel, blotted onto a nitrocellulose membrane by using semi-dry transfer. Non-specific binding to nitrocellulose was blocked with 5% skim milk in TBS with 0.5% Tween at room temperature for 1 hour, then probed with anti-Her2/ErB2 mAb (rabbit IgG, #2242, Cell Signaling) and anti-Tubulin (T9026, Sigma) as housekeeping control protein. HRP-conjugated goat anti-rabbit IgG (H+L) and HRP-conjugated horse anti-mouse IgG (H+L) were used as secondary Ab (#7074, #7076, Cell Signaling) and LumiGLO reagent, 20× Peroxide (#7003, Cell Signaling) was used for visualization.

[1] = system: human multiple myeloma tumor cell line RPMI 8226; test: SCID mouse xenograft model, human multiple myeloma tumor cell line RPMI 8226; assay type: in vivo; conditions: RPMI 8226 xenograft in SCID mice
Description: (§1) The human multiple myeloma cell line, RPMI 8226 (ATCC #CCL-155), and the canine osteosarcoma cell line, D-17 (ATCC #CCL-183), were obtained from the American Type Culture Collection (ATCC; Manassas, Va., USA). The cells were cultured in growth media prepared with RPMI Media 1640 (4.5 g/L glucose), 10% fetal bovine serum (FBS), 10 mM HEPES, 1% 100× Penicillin-Streptomycin, 1% 100× sodium pyruvate and 1% 100×MEM non-essential amino acids. FBS was obtained from ATCC and all other reagents were obtained from Invitrogen Corp. (Carlsbad, Calif., USA). Cells that had been cryopreserved in liquid nitrogen were rapidly thawed at 37° C. and transferred to a tissue culture flask containing growth media and then incubated at 37° C. in a 5% CO2 incubator. To expand the RPMI 8226 cell line, growth media was changed every 2-3 days and cultures were passaged 1:3 to 1:5 every 3-5 days. When the a 175 cm^2 flask reached approximately 20-40×10(6) total cells, the above passaging process was repeated until sufficient cells had been obtained for implantation into mice. […] The supernatant was aspirated and the cell pellet was resuspended in 10 mL of growth media and the cell number determined using a hemocytometer. […]
(§2) Tumors were then permitted to develop in vivo until the majority reached 75-250 mm^3 in tumor volume, which required ˜4 weeks following implantation for the RPMI 8226 model and ˜9 weeks for the D-17 model. […] Tumor volumes (V) were calculated by caliper measurement of the width (W), length (L) and thickness (T) of tumors using the following formula: V=0.5236×(L×W×T). Animals were randomized into treatment groups so that the average tumor volumes of each group were similar at the start of dosing. % T/C values, as a measure of efficacy, were determined as follows: • (i) If ΔT>0: % T/C=(ΔT/ΔC)×100 • (ii) If ΔT<0: % T/C=(ΔT/T0)×100 • (iii) ΔT=Change in average tumor volume between start of dosing and the end of study. • (iv) ΔC=Change in average tumor volume between start of dosing and the end of study. • (v) T0=Average tumor volume at start of dosing. […]

[2] = system: canine osteosarcoma tumor cell line D17; test: SCID mouse xenograft model, canine osteosarcoma tumor cell line D17; assay type: in vivo; conditions: D17 xenograft in SCID mice
Description: as §1, §2

## CC(C)c1cc(-c2nnc(O)n2-c2ccc(N3CCOCC3)nc2)c(O)cc1OP(=O)(O)O [Compound 2, 5-hydroxy-4-(5-hydroxy-4-(6-morpholinopyridin-3-yl)-4H-1,2,4-triazol-3-yl)-2-isopropylphenyl dihydrogen phosphate]
Her2
  IC50: 0.09 µM

## CC(C)c1cc(-c2nnc(O)n2-c2ccc3c(c2)CCC3)c(O)cc1OP(=O)(O)O [Compound 1, 4-(4-(2,3-dihydro-1H-inden-5-yl)-5-hydroxy-4H-1,2,4-triazol-3-yl)-5-hydroxy-2-isopropylphenyl dihydrogen phosphate]
Her2
  IC50: 0.228 µM

## C=CCNC1=C2C[C@@H](C)C[C@H](OC)[C@H](O)[C@@H](C)/C=C(\C)[C@H](OC(N)=O)[C@@H](OC)/C=C\C=C(/C)C(=O)NC(=CC1=O)C2=O [Compound 17AAG, 17-allylamino-17-demethoxygeldanamycin, reference compound]
Her2; 0.5 μM, positive control, results not shown
  degradation of Her2: partial degradation

## CC(C)c1cc(-c2nnc(O)n2-c2ccc3c(ccn3C)c2)c(O)cc1OP(=O)(O)O [Compound 3, 5-hydroxy-4-(5-hydroxy-4-(1-methyl-1H-indol-5-yl)-4H-1,2,4-triazol-3-yl)-2-isopropylphenyl dihydrogen phosphate]
Her2
  IC50: 0.088 µM
[1]; 100 mg/kg
  overt toxicity: Overt toxicity was not observed
[1]; 100 mg/kg body weight i.v., day 46
  % T/C value: 15%
[1]; 100 mg/kg, day 46
  average bodyweight change relative to the start of the study: 2.1%
[2]; 61 mg/kg
  overt toxicity: Overt toxicity was not observed
[2]; 61 mg/kg body weight i.v., day 83
  % T/C value: 6%
[2]; 61 mg/kg, day 83
  average bodyweight change relative to the start of the study: −0.2%

## CC(C)c1cc(-c2nnc(O)n2-c2ccc3c(ccn3C)c2)c(O)cc1OP(=O)(O)O [Compound 4, sodium 5-hydroxy-4-(5-hydroxy-4-(1-methyl-1H-indol-5-yl)-4H-1,2,4-triazol-3-yl)-2-isopropylphenyl phosphate]
Her2; phosphate
  IC50: 0.182 µM

From patent US9120745B2, “Triazole compounds that modualte HSP90 activity” (Synta Pharmaceuticals Corp., priority 2007, dated 2015)
